What was measured:
[1] = test system: Holstein Friesian cows challenged with S. aureus; assay: Clinical and productive variables in cows challenged with S. aureus (induced mastitis); assay type: in vivo
S. aureus = assay: Bacteriological analysis (CFU) in milk of cows challenged with S. aureus; assay type: in vivo, Staphylococcus aureus
Description: 1 mL of PBS was inoculated into the right quarters as a control. The NEG group (without therapy) was treated on days 4 and 10 with a 5 mL Ringer Lactate solution via the teat canal in the two infected quarters. The ATB group (antibiotic therapy) was treated with a commercial suspension of 50 mg of pirlimycin on experimental days 4 and 5 via the teat canal in the two infected quarters. The MSC group (MSC therapy) was administered with a 2.5×10^7 suspension of MSC in 3 ml of Lactated Ringer via the teat canal in the two infected quarters. From the day of the challenge and daily during 15 days, the cows were clinically evaluated and milk samples were collected daily to determine SCC and CFU (FIG. 2B). The clinical evaluation and the collection of milk samples were carried out as detailed below.
Milk samples prior to milking were collected aseptically from all cows following the protocols of the International Dairy Federation (1985) on three consecutive days prior to the experimental challenge (FIG. 2B). Briefly, before milking, the quarters and teats were cleaned using a brush or washed with water in case of excessive presence of mud or manure. Then the teats and especially the tips of the teats were disinfected using paper towels with 70% alcohol. Three or four milk streams were discarded to reduce the possibility of contamination with pathogens present in the teat canal. Each of the teats, starting with the most distant ones, were disinfected again using a 70% alcohol swab. Previously labelled sample bottles were positioned at a 45-degree angle below the nipple without touching it to prevent contamination. Nearby teats were first sampled and then distant teats, filling one third of the vial. The samples were refrigerated or frozen for analysis of SCC or CFU, respectively. Only cows with three negative consecutive cultures were used in the study. […]
From the day of the challenge and daily for 15 days, milk samples were collected for determination of CFU. The CFU values were subsequently expressed as a linear score (LS-CFU) by means of logarithmic transformation (LS=LOGN). […]

SMILES: CC[C@@H]1CCN[C@H](C(=O)N[C@@H]([C@H]2O[C@H](SC)[C@H](O)[C@@H](O)[C@H]2O)[C@H](C)Cl)C1 [ATB, pirlimycin]
- average daily milk production [1]: 16.7±0.8 I
- decrease in milk production between days 5 and 7 [1]: 2.1
- Milk yield reduction days 5-7 (Its.) ([1]; days 5-7): 2.1 Its.
- Milk yield (Its.) ([1]; n=5 each group, mean ± SD): 16.7 ± 0.8 Its.
- Rectal temperature (° C.) ([1]; n=5 each group, mean ± SD): 38.1 ± 0.3 °C
- Respiratory rate (bpm) ([1]; n=5 each group, mean ± SD): 28.6 ± 2.5 bpm
- Ruminal frequency (in 2 min) ([1]; n=5 each group, mean ± SD): 2.6 ± 0.3
- Termography BL (° C.) ([1]; n=5 each group, mean ± SD): 34.3 ± 0.6 °C
- Termography BR (° C.) ([1]; n=5 each group, mean ± SD): 34.2 ± 0.5 °C
- Termography FL (° C.) ([1]; n=5 each group, mean ± SD): 33.8 ± 0.7 °C
- Termography FR(° C.) ([1]; n=5 each group, mean ± SD): 33.7 ± 0.7 °C
- LS-CFU (linear score of CFU in milk) (S. aureus; day 3 post-challenge (before treatment on day 4)): −0.7
- LS-CFU (linear score of CFU in milk) (S. aureus; day 8 post-challenge): −0.7
- LS-CFU (linear score of CFU in milk) (S. aureus; day 9 post-challenge): −0.7

Source: patent US20220016174A1, “FOETAL MESENCHYMAL STEM CELL COMPOSITION OF ALLOGENIC ORGIN, TREATMENT METHOD AND USE THEREOF IN MASTITIS IN MILK-PRODUCING ANIMALS, INCLUDING CATTLE” (UNIVERSIDAD DE CHILE, priority 2018, published 2022)
